Experimental data taken from US20190297885A1 (Dow Global Technologies LLC, priority 2016, published 2019).

Tested on: Chlorella sp. ATCC 7516
Experiment: Algal efficacy testing of dry paint films (modified ASTM 5589, 6-well plates)
Format: cell-based
Details: 504 h
Method: These paints were then diluted with a biocide free acrylic/silicone based paint and mixed to prepare targeted concentrations of biocide combinations for the testing. The total biocides concentrations obtained were 125, 250, 500, 1000, 2000 and 5000 ppm. After biocides addition or dilution, the paints were mixed 90 seconds with the horse power shaker (AXEL 75M3372/Agitateur SO-10MI) until uniformity was achieved. […] After one day, the paints were applied to Schleicher & Schuell filter paper at 280 μm wet film thickness and dried for 3 days at room temperature avoiding direct exposure to sunlight. Square discs (1.8 cm×1.8 cm) were cut out from each panel and were used as the substrate for algal efficacy tests. This sample size allowed for an agar border when the sample disc was placed into the well of the test plate.
Algal efficacy was tested according to modified ASTM 5589 which is a standard accelerated test method for determining resistance of various coatings (including paints) to algal defacement. To accommodate for high-throughput screening, this method was scaled down from petri plates to 6-well plates. […]
At the end of the incubation period the samples were scored for percent inhibition regarding color intensity compared to the blank sample
The SI is calculated based on F. C. […]

N#Cc1c(Cl)c(Cl)c(Cl)c(C#N)c1Cl [Chlorothalonil, 2,4,5,6-tetrachloroisophthalonitrile]
inhibition at 10000 ppm (Total conc 10,000 ppm in paint, three weeks, color intensity vs blank, pass level 75%): 15%

O=c1[nH]c2c(c(=O)n1C1CCCCC1)CCC2 [Lenacil, 3-Cyclohexyl-6,7-dihydro-1H-cyclopentapyrimidine-2,4-(3H,5H)-dione]
inhibition at 1000 ppm: 90%
